Reference: patent US11746374B2, “Methods and platform for screening and selecting metabolites and their receptors” (BOARD OF REGENTS, THE UNIVERSITY OF TEXAS SYSTEM, priority 2017, dated 2023)
“And” between values parts separate entries of the source, which are not always exact repeats. Equal values may be shown once. “Also recorded” adds a separate entry of the source.

Columns and labels:
[1] = target: T1, P2X2 (Homo sapiens, UniProt Q9UBL9); experiment: Plate-based aequorin luminescence assay of P2X2 expressed in yeast; type: cell-based; set-up: expressed in transfected cells; host or cells: Saccharomyces cerevisiae BY4741 dCne1p, genome-integrated under the GAL1 promoter, aequorin on a high-copy plasmid; settings: for agonism / gating of P2X2: aequorin luminescence; for EC50: dose-response, area under luminescence curve
T1 sequence (Q9UBL9 1-471): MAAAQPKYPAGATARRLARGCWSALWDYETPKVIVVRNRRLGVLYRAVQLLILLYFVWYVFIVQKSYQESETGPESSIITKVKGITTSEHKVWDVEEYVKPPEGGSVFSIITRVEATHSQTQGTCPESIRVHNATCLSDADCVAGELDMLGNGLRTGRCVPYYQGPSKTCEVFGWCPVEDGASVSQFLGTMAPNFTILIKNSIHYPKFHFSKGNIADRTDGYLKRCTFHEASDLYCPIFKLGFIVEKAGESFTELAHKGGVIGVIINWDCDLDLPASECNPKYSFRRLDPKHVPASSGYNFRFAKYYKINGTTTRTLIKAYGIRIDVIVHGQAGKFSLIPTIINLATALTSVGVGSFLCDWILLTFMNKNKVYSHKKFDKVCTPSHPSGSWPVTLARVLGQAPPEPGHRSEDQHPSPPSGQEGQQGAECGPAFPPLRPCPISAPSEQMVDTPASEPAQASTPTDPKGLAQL
Method: Ion channel activity in yeast was tested with the purinergic P2X ion channel family. Channel gating was assessed by an aequorin assay in which aequorin is co-expressed with the receptor and, upon addition of the prosthetic group coelenterazine and addition of calcium, blue light is released. The aequorin-based functional assay was performed in all seven P2X receptors (FIG. 8). P2X1-7 were integrated into the chromosome to mitigate copy number variation between clones and were induced with galactose with the pGal1 promoter. […] Among those receptors that didn't work, it was suspected that improvements in expression and trafficking can improve functionality. For example, by modulating trafficking domains within the P2X4 receptor, aggregation was reduced in vesicles (FIG. 9), and it is believed that this tactic can be employed in other receptors. […] This can be because P2X2 has the slowest desensitization rates of the family (and is often considered “non-desensitizing”) and has the highest unitary conductance (30 pS).
To determine whether or not this truncated channel gated in yeast, an aequorin-based functional assay was used. Here aequorin, a bioluminescent protein, emits a photon upon binding calcium. This is done with the aid of coelenterazine, which must be added exogenously to yeast. The reaction is not catalytic, and the off-rate of calcium is too slow to observe on the timescales utilized in our assays. To optimize conditions for expression of both the receptor and reporter, a combination of integration, low-copy, and high-copy vectors was used. At this point, it was only possible to produce a signal upon addition of ATP, the native ligand, when both the receptor and reporter were expressed on high-copy plasmids (FIG. 56).
BY4741ΔCne1p cells were transformed with vectors containing P2X variants. Transformants were validated and made competent for a subsequent transformation with a vector containing aequorin under the expression of the constitutive PGK2 promoter. Overnight cells were induced with 2% […] for 20 hours. Following receptor expression, cells were collected by centrifugation and concentrated to 500 μL. The concentrated cells were then incubated with 5 μL of 1 mg/mL coelenterazine for 30 minutes at room temperature. Washed cells were then resuspended in softening buffer (1 M Sorbitol, 25 mM EDTA, 50 mM DTT), followed by washes in 1 M sorbitol and water. Cells were then resuspended in 50 mM MES/Tris pH 6.5 and aliquoted into a 96-well plate. Using an F500, 25 μL of cells were monitored for luminescence for 5 seconds. Upon addition of ligand or buffer (100 μL), cells were monitored for luminescence for varying times. Cell lysis was performed with the addition of 100 μL Tween20. For inhibition, varying concentrations of suramin were incubated with cells. Luminescence was monitored before and after the addition of 100 μL of 10 μM ATP. Areas under the curve were calculated and plotted against a negative control to determine the IC50.

[2] = target: T2, 3,5,7-trioxododecanoyl-CoA synthase (OLS) (Cannabis sativa, UniProt B1Q2B6); settings: cited from earlier work
T2 sequence (B1Q2B6 1-385): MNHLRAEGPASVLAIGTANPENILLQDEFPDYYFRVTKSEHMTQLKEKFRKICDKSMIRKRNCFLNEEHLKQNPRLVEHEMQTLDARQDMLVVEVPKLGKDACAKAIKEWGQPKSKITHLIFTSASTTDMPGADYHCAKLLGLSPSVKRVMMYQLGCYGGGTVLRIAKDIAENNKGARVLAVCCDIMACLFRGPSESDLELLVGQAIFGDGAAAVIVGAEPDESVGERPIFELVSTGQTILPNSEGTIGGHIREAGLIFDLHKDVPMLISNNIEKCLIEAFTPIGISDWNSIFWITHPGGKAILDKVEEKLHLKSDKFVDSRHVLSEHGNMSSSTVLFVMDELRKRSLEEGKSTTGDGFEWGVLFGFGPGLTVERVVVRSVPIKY

[3] = system: BY4741; experiment: Metabolite toxicity determined by growth assays; type: cell-based, Saccharomyces cerevisiae; settings: 4 mM of each metabolite, compared to synthetic media only
Method: Measurements of cell density (OD600) were taken in 10 min intervals. Each condition was tested in triplicate. For hexanoate growth conditions of aromatic prenyltransferase variants, transformed cells were seeded for 48 hrs and diluted 1:25 in 96-well grow-blocks in media containing 1-5 mM hexanoate. Measurements of cell density were taken in 24 hr intervals using an F500 plate reader. Final screening was performed with 10 mM hexanoate, 1% acetate supplemented synthetic complete media in 50 mL culture volumes.

[4] = target: T3, Tetrahydrocannabinolic acid synthase (THCA synthase) WT (Cannabis sativa, UniProt Q8GTB6); settings: cited from earlier work
T3 sequence (Q8GTB6 29-545): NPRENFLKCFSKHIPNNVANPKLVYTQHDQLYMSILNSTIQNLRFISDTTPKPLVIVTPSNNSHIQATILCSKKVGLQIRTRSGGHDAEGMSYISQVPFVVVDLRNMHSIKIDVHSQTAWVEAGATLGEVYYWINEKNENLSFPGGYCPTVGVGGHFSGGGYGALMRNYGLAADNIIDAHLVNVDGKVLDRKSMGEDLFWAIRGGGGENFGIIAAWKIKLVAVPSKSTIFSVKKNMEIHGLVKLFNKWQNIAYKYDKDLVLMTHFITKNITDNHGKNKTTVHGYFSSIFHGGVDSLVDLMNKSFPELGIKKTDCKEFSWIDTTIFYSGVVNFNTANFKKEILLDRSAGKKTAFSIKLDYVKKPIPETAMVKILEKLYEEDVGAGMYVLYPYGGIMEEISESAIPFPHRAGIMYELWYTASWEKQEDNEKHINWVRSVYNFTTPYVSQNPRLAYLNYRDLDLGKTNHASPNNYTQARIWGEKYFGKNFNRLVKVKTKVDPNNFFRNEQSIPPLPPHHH

[5] = target: T4, cannabidiolic acid synthase (CBDA synthase) (Cannabis sativa, UniProt A6P6V9); settings: cited from earlier work
T4 sequence (A6P6V9 29-544): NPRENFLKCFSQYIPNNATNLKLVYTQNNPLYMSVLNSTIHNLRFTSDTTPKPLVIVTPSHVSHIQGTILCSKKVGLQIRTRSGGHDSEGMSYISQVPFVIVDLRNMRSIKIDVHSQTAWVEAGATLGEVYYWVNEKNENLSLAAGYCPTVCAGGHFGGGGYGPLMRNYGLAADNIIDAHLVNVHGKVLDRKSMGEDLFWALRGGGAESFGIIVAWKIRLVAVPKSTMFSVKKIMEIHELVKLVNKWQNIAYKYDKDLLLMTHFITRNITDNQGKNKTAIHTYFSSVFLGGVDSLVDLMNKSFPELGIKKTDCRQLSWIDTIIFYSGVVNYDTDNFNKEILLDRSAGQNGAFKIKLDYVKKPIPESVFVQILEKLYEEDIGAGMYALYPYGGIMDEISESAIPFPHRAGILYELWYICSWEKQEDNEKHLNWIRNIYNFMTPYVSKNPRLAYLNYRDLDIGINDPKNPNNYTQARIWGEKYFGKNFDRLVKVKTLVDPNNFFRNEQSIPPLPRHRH

[6] = target: T5, CsAAE1 Hexanoyl CoA Synthase (Cannabis sativa, UniProt H9A1V3); settings: cited from earlier work
T5 sequence (H9A1V3 1-720): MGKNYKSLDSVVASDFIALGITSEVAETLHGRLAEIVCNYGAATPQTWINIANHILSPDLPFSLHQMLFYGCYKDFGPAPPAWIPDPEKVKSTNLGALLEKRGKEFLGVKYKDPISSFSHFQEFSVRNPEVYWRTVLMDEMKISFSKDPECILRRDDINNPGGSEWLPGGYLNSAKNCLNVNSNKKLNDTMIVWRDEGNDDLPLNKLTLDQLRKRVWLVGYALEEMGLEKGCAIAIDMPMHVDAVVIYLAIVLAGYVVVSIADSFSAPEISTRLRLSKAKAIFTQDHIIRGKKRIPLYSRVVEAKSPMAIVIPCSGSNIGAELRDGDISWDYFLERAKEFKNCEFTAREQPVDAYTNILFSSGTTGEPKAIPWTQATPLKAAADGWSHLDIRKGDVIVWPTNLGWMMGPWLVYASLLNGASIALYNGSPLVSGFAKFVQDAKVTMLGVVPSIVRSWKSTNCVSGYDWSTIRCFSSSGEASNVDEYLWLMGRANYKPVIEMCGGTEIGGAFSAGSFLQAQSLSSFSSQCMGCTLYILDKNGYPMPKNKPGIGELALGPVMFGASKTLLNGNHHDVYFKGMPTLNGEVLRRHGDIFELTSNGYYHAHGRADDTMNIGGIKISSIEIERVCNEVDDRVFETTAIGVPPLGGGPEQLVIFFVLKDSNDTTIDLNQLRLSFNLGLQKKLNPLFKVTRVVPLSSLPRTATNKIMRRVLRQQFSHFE

[7] = target: T6, human CB2 receptor (Homo sapiens, UniProt P34972); type: cell-based; settings: exogenously added ligand; GFP or zsGreen1 reporter
T6 construct: expressed in transfected cells; host or cells: Saccharomyces cerevisiae strains JG03-, JG04-, JG05-2.0 (zsGreen1 reporter), high-copy plasmid
Method: The ability of three of strains to couple to the human CB2 receptor expressed on a high-copy number plasmid was tested. Ga subunits that were predicted to couple to the receptor (Shim et al., 2013) were used. The dose-response of 2-arachidonyl glycerol, the native endocannabinoid, in strains differing only in the terminal 5 amino acids of the Gα protein. Control receptors were built that contained stop codons in the middle of the gene. These are referred to as ‘broken’ receptors.
Cells were washed 3 times and resuspended in PBS. Fluorescent (485 nm/515 nm) and cell density (600 nm) measurements were taken on a Cytation 5. Data were plotted and analyzed using SigmaPlot10. For CB2, strains JG03-, JG04-, and JG05-2.0 were transformed and treated the same. Broken receptor (stop codons) were also included in these assays.

[8] = target: wild-type CB2 receptor (Homo sapiens, UniProt P34972); settings: Gertsch 2008; cited from earlier work
Chain of wild-type CB2 receptor (P34972 whole entry): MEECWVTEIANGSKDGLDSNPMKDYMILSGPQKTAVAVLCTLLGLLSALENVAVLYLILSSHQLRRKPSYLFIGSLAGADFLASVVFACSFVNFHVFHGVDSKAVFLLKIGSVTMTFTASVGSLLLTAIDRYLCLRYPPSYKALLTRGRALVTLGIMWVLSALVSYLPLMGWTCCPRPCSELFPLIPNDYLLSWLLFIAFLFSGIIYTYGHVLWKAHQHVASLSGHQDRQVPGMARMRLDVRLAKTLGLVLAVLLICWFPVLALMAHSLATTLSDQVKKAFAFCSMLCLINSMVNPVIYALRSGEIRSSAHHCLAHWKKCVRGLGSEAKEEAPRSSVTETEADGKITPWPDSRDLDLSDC

T6 sequence (P34972 whole entry): as above

2′(3′)-O-(4-Benzoylbenzoyl)adenosine-5′-triphosphate [BzATP]
amplitude of generated signal lower than either ATP or 2-Cl-ATP [1]: 3 orders of magnitude | duration that the channel remains open, longer [1]: ~10 fold | peak amplitude relative to that achieved with ATP [1]: approximately 20% | agonism / gating of P2X2 [1]: partial agonism | EC50 [1]: 29.1 ± 6 µM

Nc1nc(Cl)nc2c1ncn2[C@@H]1O[C@H](COP(=O)(O)OP(=O)(O)OP(=O)(O)O)[C@@H](O)[C@H]1O [2-Chloro ATP, 2-Chloro-Adenosinetriphosphate]
agonism / gating of P2X2 [1]: full agonist behavior | EC50 [1]: 26.7 ± 1.5 µM

CCCCCC(=O)CC(=O)CC(=O)CC(=O)SCCNC(=O)CCNC(=O)[C@H](O)C(C)(C)COP(=O)(O)OP(=O)(O)OC[C@H]1O[C@@H](n2cnc3c(N)ncnc32)[C@H](O)[C@@H]1OP(=O)(O)O [3,5,7-trioxododecanoyl-CoA]
Km [2]: 56.9 µM | kcat [2]: 0.0577 s⁻¹

Nc1ncnc2c1ncn2[C@@H]1O[C@H](COP(=O)(O)OP(=O)(O)NP(=O)(O)O)[C@@H](O)[C@H]1O [AMP-PNP, adenylyl-imidodiphosphate]
agonism / gating of P2X2 [1]: did not gate P2X2

C=C(C)[C@@H]1CCC(C)=C[C@H]1c1c(O)cc(CCCCC)cc1O [CBD, cannabidiol]
effect on yeast growth [3]: modest growth defect; also recorded: far less inhibitory

CCCCCc1cc(O)c(C/C=C(\C)CCC=C(C)C)c(O)c1C(=O)O [CBGA, Cannabigerolic acid]
effect on yeast growth [3]: modest growth defect; also recorded: far less inhibitory | Km [4]: 134 µM | kcat [4]: .201 s⁻¹ | Km [5]: 137 µM | kcat [5]: 0.19 s⁻¹

CCCCCC(=O)O [Hexanoate, Hexanoic acid]
effect on yeast growth [3]: severely inhibit growth | effect on yeast growth ([3]; listed as Hexanoic acid): strongly inhibit growth | Km [6]: 3700 µM | kcat [6]: 2.0 s⁻¹

CCCCCC(=O)SCCNC(=O)CCNC(=O)[C@H](O)C(C)(C)COP(=O)(O)OP(=O)(O)OC[C@H]1O[C@@H](n2cnc3c(N)ncnc32)[C@H](O)[C@@H]1OP(=O)(O)O [Hexanoyl-CoA]
Km [2]: 63.1 µM and 60.8 µM

CCCCCc1cc(O)cc(O)c1 [olivetol]
effect on yeast growth [3]: severely inhibit growth

CCCCCc1cc(O)cc(O)c1C(=O)O [olivetolic acid]
effect on yeast growth [3]: strongly inhibit growth

C=C1CC/C=C(\C)CC[C@@H]2[C@@H]1CC2(C)C [β-caryophyllene]
reporter response of CB2-expressing yeast to ligand [7]: dose-dependent up-regulation of GFP expression; also recorded: responded to high concentration | detectable level of activation with the wild-type CB2 receptor [8]: 1.9 µM
